Several values for one entry are separate records, joined by “and”; a condition that tells them apart may be missing. Identical values can stand only once. Like-named read-outs stand apart in the source and are kept apart here.
Columns and labels:
[1] = Dog PK, compartmental analysis
[2] = test system: major human CYP450s (all isoforms together); assay: in vitro
[3] = biological target: CYP3A4 (Homo sapiens, UniProt P08684); assay: biochemical
[4] = Mammalian cell cytotoxicity; type: cell-based; conditions: human; HeLa cells, n=3; read-out: cytotoxicity median IC50
[5] = biological target: Cav1.2 channel (Homo sapiens, UniProt Q13936); assay: Cav1.2 electrophysiology assay (IonWorks HT, CHO cells); type: cell-based; conditions: at >100 μM
[6] = biological target: CYP2C19 (Homo sapiens, UniProt P33261); assay: Cytochrome P450 inhibition CYP2C19; type: in vitro ADME
Chain of CYP2C19 (P33261 whole entry): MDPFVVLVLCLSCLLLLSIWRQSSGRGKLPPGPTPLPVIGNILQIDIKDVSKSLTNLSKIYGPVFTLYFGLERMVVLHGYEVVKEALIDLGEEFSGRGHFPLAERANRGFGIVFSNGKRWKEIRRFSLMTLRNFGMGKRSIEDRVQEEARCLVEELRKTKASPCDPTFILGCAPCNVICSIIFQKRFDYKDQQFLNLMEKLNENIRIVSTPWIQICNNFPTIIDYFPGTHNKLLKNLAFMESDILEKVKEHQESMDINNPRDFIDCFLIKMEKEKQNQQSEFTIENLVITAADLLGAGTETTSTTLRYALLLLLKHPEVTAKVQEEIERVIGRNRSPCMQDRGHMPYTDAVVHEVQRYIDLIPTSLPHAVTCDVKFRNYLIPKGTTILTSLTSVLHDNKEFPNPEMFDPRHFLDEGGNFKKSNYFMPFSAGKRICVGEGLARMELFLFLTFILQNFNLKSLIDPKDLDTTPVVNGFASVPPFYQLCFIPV

[7] = biological target: CYP2D6 (Homo sapiens, UniProt P10635); assay: Cytochrome P450 inhibition CYP2D6; type: in vitro ADME
Chain of CYP2D6 (P10635 whole entry): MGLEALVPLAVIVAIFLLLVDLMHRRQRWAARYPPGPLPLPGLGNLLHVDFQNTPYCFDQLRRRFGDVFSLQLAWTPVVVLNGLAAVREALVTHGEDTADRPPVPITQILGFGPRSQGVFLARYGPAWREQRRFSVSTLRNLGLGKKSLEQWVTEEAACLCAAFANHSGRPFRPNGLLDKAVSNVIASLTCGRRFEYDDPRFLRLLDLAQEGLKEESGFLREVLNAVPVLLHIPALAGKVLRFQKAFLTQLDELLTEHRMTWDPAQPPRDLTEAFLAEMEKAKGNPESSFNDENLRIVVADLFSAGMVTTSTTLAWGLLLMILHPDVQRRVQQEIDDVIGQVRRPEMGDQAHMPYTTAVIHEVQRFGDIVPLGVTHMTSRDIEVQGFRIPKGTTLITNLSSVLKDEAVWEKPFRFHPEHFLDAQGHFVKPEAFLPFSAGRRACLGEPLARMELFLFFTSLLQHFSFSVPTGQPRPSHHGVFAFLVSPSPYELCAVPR

[8] = test system: African variant G6PD deficient human red blood cells (huRBC); conditions: 7 days post-treatment; E209 up to 50 mg kg^−1 day^−1 for 3 days; PQ 25 mg/kg/day for 3 days
[9] = Rat PK iv 1 mg/kg (Chem Partners); conditions: in vivo
[10] = Rat PK, compartmental analysis
[11] = test system: P. berghei; assay: Peters' standard 4-day suppressive test
[12] = test system: P. falciparum K13 wild-type and mutant lines (Cam3.II, V1/S); assay: microbe, parasite or virus in culture; type: cell-based, Plasmodium falciparum; conditions: read-out: IC50 Mean
[13] = Mouse PK, compartmental analysis
[14] = test system: P. vivax clinical field isolates; assay: microbe, parasite or virus in culture; type: cell-based; conditions: Plasmodium vivax, read-out: Median IC50
[15] = test system: P. berghei; parameters: species or system Plasmodium berghei
[16] = Metabolic stability and metabolite profile in mouse liver microsomes; type: in vitro ADME
[17] = biological target: Nav1.5 channel (Homo sapiens, UniProt Q14524); assay: Nav1.5 electrophysiology assay (IonWorks HT, CHO cells); type: cell-based; conditions: at >100 μM
Chain of Nav1.5 channel (Q14524 whole entry): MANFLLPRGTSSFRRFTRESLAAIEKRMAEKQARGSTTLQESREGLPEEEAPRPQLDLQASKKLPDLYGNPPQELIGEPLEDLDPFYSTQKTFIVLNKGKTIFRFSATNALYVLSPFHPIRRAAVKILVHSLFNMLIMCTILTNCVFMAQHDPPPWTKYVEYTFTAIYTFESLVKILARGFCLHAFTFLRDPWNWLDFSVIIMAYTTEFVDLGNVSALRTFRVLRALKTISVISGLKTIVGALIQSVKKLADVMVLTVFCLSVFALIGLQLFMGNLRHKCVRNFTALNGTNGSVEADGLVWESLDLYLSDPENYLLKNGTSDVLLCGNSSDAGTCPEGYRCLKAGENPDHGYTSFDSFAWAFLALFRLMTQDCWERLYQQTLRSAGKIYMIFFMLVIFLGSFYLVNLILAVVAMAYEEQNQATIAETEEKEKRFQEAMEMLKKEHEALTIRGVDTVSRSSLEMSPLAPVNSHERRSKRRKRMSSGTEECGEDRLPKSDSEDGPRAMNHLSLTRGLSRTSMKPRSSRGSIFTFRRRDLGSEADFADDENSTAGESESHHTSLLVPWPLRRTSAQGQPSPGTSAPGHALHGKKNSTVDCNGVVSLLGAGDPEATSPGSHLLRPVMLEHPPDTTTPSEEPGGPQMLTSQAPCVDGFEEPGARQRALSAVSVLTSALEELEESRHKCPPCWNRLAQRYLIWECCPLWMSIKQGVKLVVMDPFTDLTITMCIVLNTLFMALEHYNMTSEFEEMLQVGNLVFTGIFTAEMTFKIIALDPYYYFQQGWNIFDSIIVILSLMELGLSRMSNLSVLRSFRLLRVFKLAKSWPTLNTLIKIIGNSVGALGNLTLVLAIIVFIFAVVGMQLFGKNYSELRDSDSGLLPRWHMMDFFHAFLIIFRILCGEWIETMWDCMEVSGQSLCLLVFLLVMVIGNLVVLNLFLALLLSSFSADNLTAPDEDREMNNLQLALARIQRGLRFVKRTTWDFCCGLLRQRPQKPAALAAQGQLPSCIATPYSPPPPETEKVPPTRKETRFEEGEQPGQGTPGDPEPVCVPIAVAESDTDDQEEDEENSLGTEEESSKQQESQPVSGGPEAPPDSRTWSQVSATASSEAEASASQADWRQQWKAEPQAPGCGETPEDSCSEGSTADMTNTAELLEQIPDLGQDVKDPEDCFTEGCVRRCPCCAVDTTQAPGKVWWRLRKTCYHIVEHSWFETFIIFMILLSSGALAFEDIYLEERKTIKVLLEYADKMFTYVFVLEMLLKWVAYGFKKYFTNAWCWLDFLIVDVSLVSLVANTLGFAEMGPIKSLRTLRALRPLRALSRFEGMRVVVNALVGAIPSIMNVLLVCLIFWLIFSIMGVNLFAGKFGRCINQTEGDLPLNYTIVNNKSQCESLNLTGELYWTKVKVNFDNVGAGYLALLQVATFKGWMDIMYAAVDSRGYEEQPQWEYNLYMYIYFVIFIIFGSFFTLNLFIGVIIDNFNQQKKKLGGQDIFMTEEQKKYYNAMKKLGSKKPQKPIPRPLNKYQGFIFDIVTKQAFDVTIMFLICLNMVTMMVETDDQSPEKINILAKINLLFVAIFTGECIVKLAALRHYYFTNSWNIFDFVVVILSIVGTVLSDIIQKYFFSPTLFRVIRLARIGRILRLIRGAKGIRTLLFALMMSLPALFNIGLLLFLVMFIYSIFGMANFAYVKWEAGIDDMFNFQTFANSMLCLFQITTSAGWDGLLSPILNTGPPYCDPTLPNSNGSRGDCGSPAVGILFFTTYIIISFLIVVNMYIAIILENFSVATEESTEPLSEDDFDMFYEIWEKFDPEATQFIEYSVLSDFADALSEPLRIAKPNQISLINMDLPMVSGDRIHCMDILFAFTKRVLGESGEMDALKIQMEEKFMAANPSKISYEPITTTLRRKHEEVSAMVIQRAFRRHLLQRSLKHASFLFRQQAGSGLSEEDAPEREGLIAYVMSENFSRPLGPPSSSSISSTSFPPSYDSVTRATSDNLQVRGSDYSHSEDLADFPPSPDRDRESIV

[18] = in vivo; conditions: Sprague-Dawley, rat; for AUC(0-t) / Cmax: po
[19] = test system: P. falciparum strains (sensitive and resistant); assay: microbe, parasite or virus in culture; type: cell-based; conditions: Plasmodium falciparum
[20] = biological target: T1, cardiac IKr (hERG) channel (Homo sapiens, UniProt Q12809); assay: hERG electrophysiology assay (IonWorks HT, CHO cells); type: cell-based
T1 construct: expressed in transfected cells; host or cells: CHO cells

[21] = Single rising oral dose MTD study in rats; conditions: both sexes, Sprague-Dawley, rat, in vivo; single oral administration; read-out: maximum-tolerated dose (MTD)
[22] = Metabolic stability and metabolite profile in rat liver microsomes; type: in vitro ADME
[23] = in vitro; conditions: human, microsomes
[24] = test system: P. falciparum lab lines FC27 and K1; assay: microbe, parasite or virus in culture; type: cell-based; conditions: Plasmodium falciparum, median of 3 independent experiments
[25] = Mouse micronucleus test; conditions: in vivo
[26] = biological target: T2, Sigma 2 receptors (Homo sapiens, UniProt Q5BJF2); assay: CEREP radioligand binding screen, Sigma 2
T2 construct: CEREP
T2 sequence (Q5BJF2 whole entry): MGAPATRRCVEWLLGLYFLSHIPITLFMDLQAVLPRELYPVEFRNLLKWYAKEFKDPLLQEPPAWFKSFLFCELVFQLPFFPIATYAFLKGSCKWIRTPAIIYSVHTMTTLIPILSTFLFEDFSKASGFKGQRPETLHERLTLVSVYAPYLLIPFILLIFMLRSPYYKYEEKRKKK

[27] = test system: P. falciparum strain 3D7A; assay: In vitro parasite reduction ratio (PRR) assay; type: cell-based, Plasmodium falciparum
[28] = In vitro intrinsic clearance, human liver microsomes (Chem Partners); type: in vitro ADME; conditions: human (H) liver microsomes
[29] = Human PK prediction by allometric scaling; conditions: allometric scaling from rat parameters
[30] = Metabolic stability in dog liver microsomes; type: in vitro ADME; conditions: substrate 1 µM
[31] = test system: P. falciparum 3D7; assay: In vitro antimalarial activity, drug sensitivity testing (3D7); type: cell-based; conditions: Plasmodium falciparum
[32] = biological target: CYP1A2 (Homo sapiens, UniProt P05177); assay: Cytochrome P450 inhibition CYP1A2
Chain of CYP1A2 (P05177 whole entry): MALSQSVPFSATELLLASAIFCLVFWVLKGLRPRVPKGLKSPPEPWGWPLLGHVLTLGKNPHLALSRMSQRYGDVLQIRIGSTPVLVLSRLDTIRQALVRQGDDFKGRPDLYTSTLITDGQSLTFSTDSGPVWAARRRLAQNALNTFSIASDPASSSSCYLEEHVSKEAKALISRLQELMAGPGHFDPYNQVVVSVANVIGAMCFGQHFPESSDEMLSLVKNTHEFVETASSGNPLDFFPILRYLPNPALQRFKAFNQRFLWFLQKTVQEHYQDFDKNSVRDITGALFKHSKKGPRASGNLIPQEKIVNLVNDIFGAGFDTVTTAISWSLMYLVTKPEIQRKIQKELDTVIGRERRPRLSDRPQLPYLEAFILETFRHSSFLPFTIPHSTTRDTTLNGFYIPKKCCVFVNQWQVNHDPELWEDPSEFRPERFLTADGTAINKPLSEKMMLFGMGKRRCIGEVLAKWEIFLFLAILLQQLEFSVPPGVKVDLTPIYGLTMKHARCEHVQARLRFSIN

[33] = In vitro intrinsic clearance, rat liver microsomes (Chem Partners); type: in vitro ADME; conditions: rat (R) liver microsomes

Chain of CYP3A4 (P08684 whole entry): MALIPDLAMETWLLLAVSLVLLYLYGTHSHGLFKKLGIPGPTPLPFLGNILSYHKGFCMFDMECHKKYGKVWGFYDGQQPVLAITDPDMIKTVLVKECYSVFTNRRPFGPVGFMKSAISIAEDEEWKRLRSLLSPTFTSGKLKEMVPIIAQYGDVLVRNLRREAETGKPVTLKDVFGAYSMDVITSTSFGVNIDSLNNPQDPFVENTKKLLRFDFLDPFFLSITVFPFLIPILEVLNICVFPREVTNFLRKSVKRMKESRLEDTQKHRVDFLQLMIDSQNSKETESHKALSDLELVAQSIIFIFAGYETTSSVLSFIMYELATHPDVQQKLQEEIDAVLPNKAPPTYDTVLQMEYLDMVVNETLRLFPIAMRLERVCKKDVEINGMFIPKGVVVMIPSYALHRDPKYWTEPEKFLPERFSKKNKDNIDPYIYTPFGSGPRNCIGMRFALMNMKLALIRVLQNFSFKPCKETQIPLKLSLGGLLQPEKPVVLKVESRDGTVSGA

FC1CCN(CCOc2ccc(C3CCC4(CC3)OOC3(OO4)C4CC5CC(C4)CC3C5)cc2)CC1 (stereo not shown) [Compound E209]
Absorption rate constant Ka ([1]; PO 5 mg kg^−1): 0.33 h⁻¹
bioavailability ([1]; male, Beagle, plasma, oral, 5 mg kg^−1): 40%
clearance ([1]; male, Beagle, plasma, other: intravenous and oral, fitted together): 18.3 mL/min/kg
IC50 [2]: > 20000 nM
IC50 [3]: > 20000 nM
IC50 [4]: 2850 nM
inhibitory activity [5]: no inhibitory activity
IC50 [6]: > 20000 nM
IC50 [7]: > 20000 nM
loss of huRBC [8]: did not show a significant drug-dependent loss of huRBC
clearance [9]: 5.1 mL/min/kg
Absorption rate constant Ka ([10]; PO 9 mg kg^−1): 0.31 h⁻¹
clearance ([10]; male, Sprague-Dawley, plasma, other: intravenous and oral, fitted together): 26.7 mL/min/kg
parasite clearance ([11]; given orally, 4-day suppressive test): complete parasite clearance
estimated ED50 ([11]; oral, after three doses, P. berghei infected mice): 4 mg/kg
IC50 ([12]; Plasmodium falciparum, 72 h): 8.71 nM
IC50 [12]: 7.6 nM and 7.51 nM and 8.46 nM and 7.76 nM and 7.81 nM
Absorption rate constant Ka ([13]; PO 10 mg kg^−1): 0.79 h⁻¹
bioavailability ([13]; female, Swiss Outbred, plasma, oral, 10 mg kg^−1): 82%
clearance ([13]; female, Swiss Outbred, plasma, other: intravenous and oral, fitted together): 71.7 mL/min/kg
IC50 [14]: 10.5 nM
In vivo (Pb) MSD (days) at 1 x 30 mg/kg [15]: 26.3 days and 25.0 (15, 30, 30) (2 cures) days
cure rate ([15]; in vivo): 66%
% Substrate Consumed ([16]; mouse liver microsomes with NADPH, 60 minutes): 44%
Microsome-Predicted EH ([16]; mouse liver microsomes, substrate 1 µM): 0.22
half-life at 1 µM ([16]; mouse liver microsomes, substrate 1 µM, read-out: Degradation half-life): 2.2 h
microsomal CLint at 1 µM ([16]; mouse liver microsomes, substrate 1 µM, read-out: In vitro CLint): 13 µL/min/mg
Microsome-Predicted EH ([16]; mouse liver microsomes, substrate 5 µM): 0.25
half-life at 5 µM ([16]; mouse liver microsomes, substrate 5 µM, read-out: Degradation half-life): 2.48 h
microsomal CLint at 5 µM ([16]; mouse liver microsomes, substrate 5 µM, read-out: In vitro CLint): 17 µL/min/mg
inhibitory activity [17]: no inhibitory activity
NOAEL ([18]; female): 50 mg/kg/day
AUC(0-t) ([18]; female, 50 mg/kg): 14800 ng·h/mL
Cmax ([18]; female, 50 mg/kg): 1070 ng/mL
NOAEL ([18]; male): 100 mg/kg/day
AUC(0-t) ([18]; male, 100 mg/kg): 19600 ng·h/mL
Cmax ([18]; male, 100 mg/kg): 1200 ng/mL
IC50 ([19]; DD2, strain Dd2 (chloroquine resistant), mean ± SD n=3): 7.7 ± 1.5 nM
IC50 ([19]; HB3, strain HB3 (chloroquine sensitive), mean ± SD n=3): 4.2 ± 0.8 nM
IC50 ([19]; NF54, strain NF54 (chloroquine sensitive), mean ± SD n=3): 5.2 ± 1 nM
IC50 ([19]; TM90C2B, strain TM90C2B (chloroquine resistant), mean ± SD n=3): 7.3 ± 1.4 nM
IC50 ([19]; read-out: mean IC50 range, panel of 10 sensitive and multidrug-resistant P. falciparum isolates): 2.9 to 14 nM
IC50 ([19]; strain 7G8 (chloroquine resistant), mean ± SD n=3): 2.9 ± 0.6 nM
IC50 ([19]; strain D6 (chloroquine sensitive), mean ± SD n=3): 8.5 ± 1.6 nM
IC50 ([19]; strain FCB (chloroquine resistant), mean ± SD n=3): 14 ± 2.7 nM
IC50 ([19]; strain K1 (chloroquine resistant), mean ± SD n=3): 4.2 ± 0.8 nM
IC50 ([19]; strain V1/S (chloroquine resistant), mean ± SD n=3): 4.2 ± 0.8 nM
IC50 [20]: > 3500 nM
MTD [21]: 300 mg/kg
% Substrate Consumed ([22]; rat liver microsomes with NADPH, 60 minutes): 54%
Microsome-Predicted EH ([22]; rat liver microsomes, substrate 1 µM): 0.48
half-life at 1 µM ([22]; rat liver microsomes, substrate 1 µM, read-out: Degradation half-life): 0.8 h
microsomal CLint at 1 µM ([22]; rat liver microsomes, substrate 1 µM, read-out: In vitro CLint): 36 µL/min/mg
Microsome-Predicted EH ([22]; rat liver microsomes, substrate 5 µM): 0.45
half-life at 5 µM ([22]; rat liver microsomes, substrate 5 µM, read-out: Degradation half-life): 0.9 h
microsomal CLint at 5 µM ([22]; rat liver microsomes, substrate 5 µM, read-out: In vitro CLint): 32 µL/min/mg
microsomal CLint [23]: 23 µL/min/mg
IC50 ([24]; K1, FC27 (CQ S) lab line): 20.7 nM
IC50 ([24]; K1, K1 (CQ R) lab line): 31.8 nM
mouse micronucleus test result [25]: negative
IC50 [26]: ~200 nM
Lag phase ([27]; 10 × IC50): 0 h
Log PRR ([27]; 10 × IC50): > 4.8
Slope ([27]; 10 × IC50): −0.098
PCT 99.9 % ([27]; 10 × IC50, parasite clearance time): < 24 h
CLint scaled [28]: 58 mL/min/kg
Absorption rate constant Ka [29]: 0.31 ^† h^−1
Central clearance, CL [29]: 0.41 l^ h^−1 kg^−1
Inter-compartmental clearance 1, Q1 [29]: 7.5 mL/min/kg
Inter-compartmental clearance 2, Q2 [29]: 0.333 mL/min/kg
Microsome-Predicted EH ([30]; n=1): 0.38
half-life at 1 µM ([30]; n=1, read-out: Degradation half-life): 2.88 h
microsomal CLint at 1 µM ([30]; n=1, read-out: In vitro CLint): 10 µL/min/mg
IC50 [31]: 5.1 ± 0.81 nM
IC50 [32]: > 20000 nM
CLint scaled [33]: 70 mL/min/kg
